We go through six compounds from US20250283035A1, “MORPHOGENIC COMPOUND-RELEASING MICROSPHERES AND USE IN BIOINK” (UVic Industry Partnerships Inc., priority 2018, published 2025).

The conditions of data set [1]: drug in microspheres, literature values, cited from earlier work.
The conditions of data set [2]: cited from earlier work.
Data set [3] in a line: 46-day purmorphamine release study from PCL microspheres in PBS. Format: physicochemical. As for the experimental part:
A 46-day release study was performed to determine the release kinetics of purmorphamine. Each sample contained 10 mg of microspheres and 1 ml of PBS placed on 1.5 ml micro tubes (Axygen®). Samples for each day of collection (n=3) were placed on a VWR® mini shaker at 330 rpm at 37° C. and were collected every 4 days. After collection, samples were washed with de-ionized water and freeze-dried for further analysis. The drug was extracted from the microspheres and then quantified with high-performance liquid chromatography (HPLC) to estimate the puro concentration in the microspheres. Next, 10 mg of microspheres was placed in 1.5 ml microtubes in triplicate. […] The samples were then placed on the vortex mixer (Eppendorf® MixMate®) at 2500 rpm for 5 minutes. […] The samples were then placed at −80° C. for 5 minutes followed by centrifugation (Eppendorf 5424) at 1500 rpm for five minutes. The samples were filtered using 0.2 μm PTFE syringe filters before adding the supernatant to amber vials. HPLC was performed using an Agilent 1200 equipped with quaternary pump and diode-array detector (DAD) to quantify the amount of puro present in samples. A standard of puro with eleven dilutions of a stock solution diluted in ACN was used to determine the concentrations of the samples. The column used was an Eclipse Plus C18 (Agilent) with 5 μm particle size, 4.6 mm internal diameter (ID), and was 150-mm long with similar phase and ID guard column. Samples were analyzed at 300 nm after mass spectroscopy was used to generate a spectrum for puro. Mass spectroscopy information was acquired using an Ultimate 3000 HPLC system connected to an Orbitrap (Thermo Fisher Scientific). The system was used in direct infusion mode with no separation. Solvents used for this analysis were HPLC-grade ACN mixed with […] dispensed from a Milli-Q integral purification system (Millipore, ON, Canada). Both contained 0.1% V/V trifluoroacetic acid (TFA) (Fisher Scientific, Hampton, NH). […] ChemStation software was used for data analysis with auto-integration adjusted manually when needed.

Data set [4] is described as follows: Degradation of fibrin scaffolds containing drug (Example 3).
Data set [5] is described as follows: In vitro guggulsterone release study from PCL microspheres in PBS. It is filed as physicochemical. As for the experimental part:
In vitro release studies were performed in triplicate. Ten milligrams of microspheres was suspended in 1 mL of PBS in a microtube. The tubes were then loaded onto a Sarstedt Sarmix mr-1 tube rotator and incubated at 37° C. The PBS supernatant for each tube was replaced every 2 days while tubes were removed and collected from the rotator at the following predetermined time points: day 2, 4, 8, 12, 16, 20, 24, 28, 36, and 44. For the collected tubes, the PBS supernatant was removed, and the microspheres were washed with deionized water, lyophilized, and weighed. The remaining GS concentration inside the microspheres was determined as previously described by dissolving microspheres with DCM, extracting the drug/precipitating PCL with 100% ethanol, and reading the absorbance at 255 nm using a Tecan Infinite® M200Pro plate reader (Gomez, et al., 2015). The amount of GS released was calculated by subtracting the GS remaining in the microspheres from the theoretical GS present in each amount of microspheres at day 0. Percentages of the drug that were assumed to be released for each sample day were calculated by comparing drug amounts leftover and initial amounts of the drug inside the microspheres to create a cumulative release graph.

The conditions of data set [6]: ref [50]; cited from earlier work.
For data set [7], the system named is hiPS aggregates. Nature of the data set: Flow cytometry of βIII-tubulin (TUJ1), Olig2, GFAP in hiPS aggregates (Example 2). It is filed as cell-based, human. Set-up: unit of the concentration uncertain. On the procedure:
ReLeSR™ was used to select and remove undifferentiated hiPSs from the wells. Uniform hiPS aggregates were formed by adding a single cell suspension in STEMdiff™ Neural Induction Medium of 1×106 hiPSs to wells in AggreWell™ 800 plates and centrifuged for 5 min at 100×g to deposit the cells at the bottom of each microwell. Before incorporation with the cells, the microspheres were sterilized by low power air-plasma treatment (Harrick PDC-32G) for 30 seconds as described previously. When forming microsphere-incorporated hiPS aggregates, 0.5 mg of microspheres suspended in STEMdiff™ Neural Induction Medium was added to each AggreWell™ 800 well for a total of 2 mL of media in each well and centrifuged for 5 min at 100×g (FIGS. 11A-11B). The aggregates in the AggreWell™ 800 plates were maintained in 2 mL of STEMdiff™ Neural Induction Medium with daily media changes for 5 days. On day 5, the aggregates were harvested for immunocytochemistry or transferred to PLO/laminin-coated 24-well plates at a single aggregate per well for the remaining duration of the cell study (until day 12 or day 20). […] Negative control treatments contained aggregates without microspheres and media without soluble drug added. […]
Cell marker expression was quantified with flow cytometry on day 20 for β-tubulin III, Olig-2, and GFAP. […]
For orientation: Flow cytometry measures light scatter and fluorescence of single cells or particles in a stream.

For data set [8] the following is noted: quoted in Example 1 from ref [42]; cited from earlier work.
A short description of data set [9]: Guggulsterone encapsulation efficiency (extraction, HPLC-MS). It is filed as physicochemical. Particulars: PCL microspheres, 0.6 μg/mg GS/PCL; of total GS added. As for the experimental part:
The amount of GS encapsulated per unit weight of microspheres was determined by extracting the drug from the fabricated microspheres. A measured amount of lyophilized microspheres was placed in a 1.5 mL propylene microtube, and 200 μL of ACN was added to each sample. The samples were vortexed at 3000 rpm for 30 seconds, vortexed for 5 minutes at 350 rpm (Eppendorf® MixMate®), and mixed with a micropipette for 10 seconds. These mixing steps were repeated twice to dissolve the PCL. Next, 1000 μL of additional ACN was added to the samples and mixed by micropipette for 10 seconds and then vortexed at 3000 rpm for 30 seconds. The solution was then centrifuged at 22° C. and 13000 rpm for 5 min using an Eppendorf 5424 Microcentrifuge. Thereafter, 1000 μL of the supernatant was transferred to a microtube and diluted as necessary for high performance liquid chromatography-mass spectrometry (HPLC-MS). The concentration of the drug in the sample was determined using HPLC-MS (Ultimate 3000 MSQ, Thermo Scientific with Chromeleon™ software) and run against a GS standard composed of five dilutions of a stock solution composed of GS dissolved in ACN. […]

Data set [10] concerns hiPS aggregates. Nature of the data set: Neurite morphology analysis of hiPS aggregates, IncuCyte (Example 2). Format: cell-based, human. Particulars: day 12. On the procedure: ReLeSR™ was used to select and remove undifferentiated hiPSs from the wells. Uniform hiPS aggregates were formed by adding a single cell suspension in STEMdiff™ Neural Induction Medium of 1×106 hiPSs to wells in AggreWell™ 800 plates and centrifuged for 5 min at 100×g to deposit the cells at the bottom of each microwell. Before incorporation with the cells, the microspheres were sterilized by low power air-plasma treatment (Harrick PDC-32G) for 30 seconds as described previously. […]
Immunostained cell aggregates were imaged with an IncuCyte® ZOOM automatic live-cell imaging system (Essen BioScience, Ann Arbor, MI) at 10× magnification. Quantification of the morphological metrics of neurite length and branch points was performed using IncuCyte® ZOOM Software (2016A). Using the NeuroTrack™ software module, day 12 and day 20 green channel fluorescence (anti-beta-tubulin III positive) images were analyzed by masking the total neurite coverage and calculating the average length and branch points with the same processing definition. The cell aggregate area was analyzed for day 12 images using a NeuroTrack™ software processing definition, whereas a Basic Analyzer processing definition (used for confluence masking) was used to analyze the day 20 images. […]

The conditions of data set [11]: cited from earlier work. The source holds these as a separate data set.
[12] abbreviates: if release rate consistent beyond 44 days.

“And” between values parts separate entries of the source, which are not always exact repeats. Identical values can stand only once. Like-named read-outs stand apart in the source and are kept apart here.

As for `O=C1CN=C(c2ccccc2Cl)c2cc([N+](=O)[O-])ccc2N1` [Clonazepam], the “encapsulation efficiency, previously reported” value in [1] is listed as 72.6-95.1%.

On to `CC1=C(/C=C/C(C)=C/C=C/C(C)=C/C(=O)O)C(C)(C)CCC1` [RA, retinoic acid], for which the “encapsulation efficiency, previously reported” value is 60.0% in [1] and about 60% in data set [1] (listed as retinoic acid). Besides, the “cumulative RA release from PCL microspheres” value in data set [2] (day 28, RA concentration 7.5 times greater) was about 53%; in data set [2] (day 28, lower RA concentration), 28%.

With `CC(=O)OCC(=O)[C@@]1(O)CC[C@H]2[C@@H]3CCC4=CC(=O)CC[C@]4(C)[C@H]3[C@@H](O)C[C@@]21C` [hydrocortisone 21-acetate], the “encapsulation efficiency, previously reported” value in data set [1] is recorded as about 55%.

In the case of `C[C@]12CCC(=O)C=C1CC[C@@H]1[C@@H]2[C@@H](O)C[C@@]2(C)[C@H]1CC[C@]2(O)C(=O)CO` [hydrocortisone], the “encapsulation efficiency, previously reported” value in data set [1] is reported as about 9%.

Regarding `c1ccc2c(Oc3nc(Nc4ccc(N5CCOCC5)cc4)c4ncn(C5CCCCC5)c4n3)cccc2c1` [puro, purmorphamine], the cumulative puro release in data set [3] (day 28) was 68%; in [3] (day 44), about 87%; in data set [3] (day 46, of theoretically encapsulated drug) it was 91%. Also, the “puro released on average per day” value in data set [3] (from 0.34 mg of puro-loaded microspheres added to cell aggregates) was about 0.0748 µg. In addition, the “puro released every day” value in [3] (from 10 mg of microspheres) came to 2.2 µg.

Take guggulsterone [GS]: the “degradation of fibrin scaffolds containing the drug” value in data set [4] is on record as “degraded much faster than samples containing RA”. Besides, the “concentration of GS released” value in data set [5] (0.5 mg of microspheres per aggregate-forming well) is about 0.93 ng/mL. In addition, the “cumulative GS release” value is about 45% in data set [5] (day 28); ~60% and ~62% in data set [5] (day 44 (final day), of drug theoretically encapsulated). In data set [5] (from 10 mg of microspheres, slope of graph), the “average release of GS per day” value turned out to be 37 ng. For the same compound, the “additional duration of GS delivery beyond 44 days” value in data set [5] (setting [12]) worked out at 27 days. Further, in [5] (setting [12]), the “total duration of drug release” value is recorded as 71 days. Besides, the “total amount of guggulsterone encapsulated” value in [5] (in 10 mg of microspheres) is recorded as about 2550 ng. The “theoretical total amount of drug initially in each sample” value in data set [5] (in 10 mg of microspheres, day 0) was about 2.5 µg. Besides, the susceptibility to degradation result in data set [6] was “susceptible to degradation, including photodegradation”. For the same compound, the “TUJ1 expression (flow cytometry)” value in data set [7] (day 20, soluble GS at 0.25 µM) was about 4%; in data set [7] (day 20, soluble GS at 2.5 µM), about 7%. Besides, the “GS encapsulation efficiency, previously reported” value in data set [8] is 42.4%. In data set [9], the GS encapsulation efficiency was 42.4±3.5% and ~42%. In addition, in data set [10], the “neurite length per cell cluster area” value is on record as “greater neurite length compared to the negative control”. The “cumulative GS release, previously reported” value in data set [11] (day 28, quoted in Example 1 from refs [40, 42]) is recorded as 45%; in data set [11] (day 44, quoted in Example 1 from refs [40, 42]), 55%.
